“And” between values parts separate entries of the source, which are not always exact repeats. Equal values may be shown once.
Assays:
[1] = system: Candida albicans LH-000664533; experiment: In vitro study of inhibition of growth and lethality against yeast (MIC/MLC susceptibility test), isolate D; assay type: cell-based; settings: Candida albicans, 2nd pair of lines, isolate assigned by line order
[2] = system: Cryptococcus neoformans DLB-1027594CNC; experiment: In vitro study of inhibition of growth and lethality against yeast (MIC/MLC susceptibility test), isolate G; assay type: cell-based; settings: Cryptococcus neoformans, 1st pair of lines, isolate assigned by line order
[3] = system: Cryptococcus neoformans SLP-BC0012854; experiment: In vitro study of inhibition of growth and lethality against yeast (MIC/MLC susceptibility test), isolate H; assay type: cell-based; settings: Cryptococcus neoformans, 2nd pair of lines, isolate assigned by line order
[4] = system: Torulopsis glabrata JHC-BC9951635; experiment: In vitro study of inhibition of growth and lethality against yeast (MIC/MLC susceptibility test), isolate E; assay type: cell-based; settings: Torulopsis glabrata, 2nd pair of lines, isolate assigned by line order
[5] = system: Candida albicans KJP-000531594; experiment: In vitro study of inhibition of growth and lethality against yeast (MIC/MLC susceptibility test), isolate C; assay type: cell-based; settings: Candida albicans, 1st pair of lines
[6] = system: Candida albicans (ATCC 10231); experiment: Minimum Inhibitory Concentration (MIC) against yeast, broth dilution; assay type: cell-based; settings: 37° C., 20 hours, mean of duplicate
[7] = system: Candida tropicalis (ATCC 750); experiment: as above; assay type: cell-based; settings: 37° C., 20 hours, mean of duplicate
[8] = system: Candida tropicalis ATCC 28707; experiment: In vitro study of inhibition of growth and lethality against yeast (MIC/MLC susceptibility test), isolate B; assay type: cell-based; settings: Candida tropicalis, 1st pair of lines, isolate assigned by line order
[9] = system: Candida tropicalis (ATCC 28707-amphotericin B-resistant); experiment: Minimum Inhibitory Concentration (MIC) against yeast, broth dilution; assay type: cell-based; settings: 37° C., 20 hours, mean of duplicate
[10] = system: Torulopsis glabrata ERH-BC9938274; experiment: In vitro study of inhibition of growth and lethality against yeast (MIC/MLC susceptibility test), isolate F; assay type: cell-based; settings: Torulopsis glabrata, 1st pair of lines, isolate assigned by line order
Male CD-1 mice = experiment: In vivo toxicity: intraperitoneal (IP) dosage in mice resulting in 50% lethality (LD50); settings: single IP dose, observed 14 days
[11] = target: T1, NAD synthetase (recombinant protein from B. subtilis; purified) (Bacillus subtilis, UniProt P08164); experiment: NAD synthetase enzyme inhibition assay (coupled enzymatic assay, HTS); assay type: biochemical; settings: table of structures used in the yeast assay (Example 4)
T1 construct: made in house
T1 sequence (P08164 whole entry): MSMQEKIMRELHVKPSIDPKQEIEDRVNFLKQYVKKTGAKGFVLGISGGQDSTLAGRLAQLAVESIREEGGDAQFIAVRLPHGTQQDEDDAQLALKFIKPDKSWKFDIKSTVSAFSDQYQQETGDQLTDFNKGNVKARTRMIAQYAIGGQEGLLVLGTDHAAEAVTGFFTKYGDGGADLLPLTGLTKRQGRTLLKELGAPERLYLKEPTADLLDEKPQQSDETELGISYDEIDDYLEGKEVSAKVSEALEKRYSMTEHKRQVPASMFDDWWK
Method: NAD Synthetase Enzyme Inhibition Assay-Determination of Test Compound Concentrations Providing 50% Inhibition ([…]) of the Maximum Enzyme Rate
The potential inhibitory activity of the synthetic compounds was determined by the use of a coupled enzymatic assay. The coupled assay involves two steps as summarized below. [drawing 98]
The measurement of inhibitory activities of the test compounds was facilitated by the use of a high through-put screening system (HTS system). The HTS system utilizes an integrated Sagian 2M ORCA robotic system coordinating the functions of a Beckman Biomek 2000 liquid handler and a Molecular Devices SpectraMax Plus spectrophotometer. The 2M ORCA robotic station is responsible for the movement of all hardware and the integration of multiple stations on the worksurface. The Biomek 2000 is programmed to perform all phases of liquid dispensing and mixing. The SpectraMax Plus spectrophotometer is equipped to monitor absorbance in a 96-well plate format.
The Biomek 2000 mixes these components utilizing a predefined mixing program. […] The reaction is monitored by measuring the increase in absorbance at 340 nm (NADH). The linear portion of the reaction is monitored for 180 sec. The initial velocity is determined using Softmax Pro, the software supplied with the Molecular Devices SpectrMax Plus spectrophotometer.
The test compounds were supplied as a stock solution with a concentration of 50 mM dissolved in 100% dimethyl sulfoxide (DMSO). An initial screen was conducted on all compounds using a 2 or 3 concentration screen. The 2 panel screen used concentrations of 0.2 mM and 0.1 mM for the compounds. The 3 panel screen used concentrations of 0.2 mM, 0.1 mM, and 0.05 mM. […] The IC50 values for each compound were determined graphically from a plot of % inhibition versus […].

[12] = system: Candida tropicalis ATCC 750; experiment: In vitro study of inhibition of growth and lethality against yeast (MIC/MLC susceptibility test), isolate A; assay type: cell-based; settings: Candida tropicalis, 2nd pair of lines, isolate assigned by line order

C[n+]1cccc(C(=O)OCCCCCCCCn2ccc3cc(OCc4ccccc4)ccc32)c1 [Compound 769]
Minimum Inhibitory Conc. (MIC), 24 hr. ([1]; read at 24 hr): 1 µg/mL
Minimum Inhibitory Conc. (MIC), 48 hr. ([1]; read at 48 hr): 2 µg/mL
Minimum Lethal Conc. (MLC) [1]: 8 µg/mL
Minimum Inhibitory Conc. (MIC), 48 hr. ([2]; read at 48 hr): 0.5 µg/mL
Minimum Inhibitory Conc. (MIC), 72 hr. ([2]; read at 72 hr): 1 µg/mL
Minimum Lethal Conc. (MLC) [2]: 2 µg/mL
Minimum Inhibitory Conc. (MIC), 48 hr. ([3]; read at 48 hr): 0.5 µg/mL and 1 µg/mL
Minimum Inhibitory Conc. (MIC), 72 hr. ([3]; read at 72 hr): 0.5 µg/mL and 1 µg/mL
Minimum Lethal Conc. (MLC) [3]: 2 µg/mL
Minimum Inhibitory Conc. (MIC), 24 hr. ([4]; read at 24 hr): 0.5 µg/mL
Minimum Inhibitory Conc. (MIC), 48 hr. ([4]; read at 48 hr): 1 µg/mL
Minimum Lethal Conc. (MLC) [4]: 1 µg/mL
Minimum Inhibitory Conc. (MIC), 24 hr. ([5]; read at 24 hr, isolate not given, assigned by line order and MLC of Table 4B): 2 µg/mL and 1 µg/mL
Minimum Inhibitory Conc. (MIC), 48 hr. ([5]; read at 48 hr, isolate assigned by line order): 2 µg/mL and 4 µg/mL
Minimum Lethal Conc. (MLC) ([5]; isolate assigned by line order): 8 µg/mL
MIC Candida albicans (ATCC 10231) [6]: 4.7 µg/mL
MIC Candida tropicalis (ATCC 750) [7]: 0.098 µg/mL
Minimum Inhibitory Conc. (MIC), 24 hr. ([8]; read at 24 hr): 0.25 µg/mL
Minimum Inhibitory Conc. (MIC), 48 hr. ([8]; read at 48 hr): 0.5 µg/mL
Minimum Lethal Conc. (MLC) [8]: 2 µg/mL
MIC Candida tropicalis (ATCC 28707) [9]: 0.098 µg/mL
Minimum Inhibitory Conc. (MIC), 24 hr. ([10]; read at 24 hr): 1 µg/mL
Minimum Inhibitory Conc. (MIC), 48 hr. ([10]; read at 48 hr): 2 µg/mL
Minimum Lethal Conc. (MLC) [10]: 2 µg/mL
LD50 (Male CD-1 mice): 43 mg/kg
IC50 (μg/mL) for Inhibit. of NAD Synthetase [11]: 20 µg/mL
Minimum Inhibitory Conc. (MIC), 24 hr. ([12]; read at 24 hr): 1 µg/mL
Minimum Inhibitory Conc. (MIC), 48 hr. ([12]; read at 48 hr): 1 µg/mL
Minimum Lethal Conc. (MLC) [12]: 2 µg/mL

Source: patent US6673827B1, “Methods of treating fungal infections with inhibitors of NAD synthetase enzyme” (priority 1999, dated 2004)
